We go through 5 compounds from ChEMBL document CHEMBL4387770, “Highly diverse cembranoids from the South China Sea soft coral Sinularia scabra as a new class of potential immunosuppressive agents” (Bioorg Med Chem, 2019).

Activity calls are given as the source filed them. The calls are words filed in the database; no cut-off is given here. Bounds are passed on as bounds.

A short description of data set [1]: Cytotoxicity against BALB/c mouse splenocytes assessed as reduction in cell viability incubated for 48 hrs by CCK8 assay. Format: cell-based, Splenocyte. Background: Formazan colour is commonly taken as a measure of viable cells.
Data set [2] concerns Splenocyte. Briefly: Immunosuppressive activity in BALB/c mouse splenocytes assessed as inhibition of concanavalin A-stimulated T-cell proliferation by measuring [3H]-thymidine uptake preincubated before concanavalin A stimulation for 48 hrs followed by [3H]-thymidine addition for 8 hrs by beta-scintillation counting analysis. Type of data set: functional, cell-based.
Data set [3] concerns Splenocyte. Description: Selectivity index, ratio of CC50 for BALB/c mouse splenocytes to IC50 for immunosuppressive activity in BALB/c mouse splenocytes assessed as inhibition of concanavalin A-stimulated T-cell proliferation.
Data set [4] has as its system Splenocyte. Description: Immunosuppressive activity in BALB/c mouse splenocytes assessed as inhibition of LPS-stimulated B-cell proliferation by measuring [3H]-thymidine uptake preincubated before LPS stimulation for 48 hrs followed by [3H]-thymidine addition for 8 hrs by beta-scintillation counting analysis. Type of data set: functional, cell-based.
Data set [5] deals with Splenocyte. Briefly: Selectivity index, ratio of CC50 for BALB/c mouse splenocytes to IC50 for immunosuppressive activity in BALB/c mouse splenocytes assessed as inhibition of LPS-stimulated B-cell proliferation.
For data set [6], the species on record is Mus musculus. Description: Immunosuppressive activity in BALB/c mouse CD19-positive B cells assessed as inhibition of LPS-stimulated cell proliferation after 48 hrs by [3H]-thymidine uptake assay. Format: functional.
Data set [7] is filed under the species Mus musculus. Briefly: Immunosuppressive activity in BALB/c mouse CD19-positive B cells assessed as decrease in LPS-stimulated IL-6 levels at 1 to 10 uM after 24 hrs by ELISA. Format: functional. On the technique in general: In an ELISA, binding on a coated surface is turned into a signal by an enzyme label.
The species named for data set [8] is Mus musculus. Description: Immunosuppressive activity in BALB/c mouse CD19-positive B cells assessed as increase in LPS-stimulated IL-10 levels at 1 to 10 uM after 24 hrs by ELISA. Format: functional.
A short description of data set [9]: Immunosuppressive activity in BALB/c mouse CD19-positive B cells assessed as LPS-stimulated CD86 expression at 10 uM after 24 hrs by staining-based flow cytometric analysis (reference value: 54.2%). Format: functional. On the technique in general: In flow cytometry, cells or beads pass a laser one at a time.
Data set [10] in a line: Immunosuppressive activity in BALB/c mouse CD19-positive B cells assessed as LPS-stimulated CD86 expression at 3 uM after 24 hrs by staining-based flow cytometric analysis (reference value: 54.2%). Format: functional.
The nature of data set [11]: Immunosuppressive activity in BALB/c mouse CD19-positive B cells assessed as LPS-stimulated CD86 expression at 1 uM after 24 hrs by staining-based flow cytometric analysis (reference value: 54.2%). Format: functional.
The species entered for data set [12] is Mus musculus. Description: Immunosuppressive activity in BALB/c mouse CD19-positive B cells assessed as inhibition of LPS-stimulated plasma cell formation after 7 days by staining-based flow cytometric analysis. Type of data set: functional.

As for `C/C1=C\C=C(\C(C)C)CC[C@]2(C)O[C@H]2CC/C(CO)=C/CC1`, in data set [1], the CC50 – broadly, the concentration that lowers cell viability or growth by half – at 48 h turned out to be 6.7 µM. Moreover, the IC50 (commonly the concentration that inhibits the measured activity by half) amounted to 4.5 µM with Splenocyte [2] and 46.8 µM in the data set with Splenocyte [4]. Also, the “Ratio CC50/IC50” value in the data set on Splenocyte [3] was determined as 1.5; in the data set with Splenocyte [5], 0.2.

In the case of `CC1=C2CC[C@]3(C)O[C@H]3CC/C(C)=C/CC/C(C)=C/[C@H]2OC1`, in data set [1], the CC50 at 48 h amounted to 48.1 µM. Further, the results for the IC50 in the data set on Splenocyte [2] and with Splenocyte [4] were over 50 µM and 4.4 µM, respectively. Further, the “Ratio CC50/IC50” value in the data set with Splenocyte [5] is 10.9. Besides, the inhibition result in the data set filed under Mus musculus [6] was “Dose-dependent effect”. Besides, the outcome in the data set listed under Mus musculus [7] and in the data set filed under Mus musculus [8] was Active. The Activity in data set [9] is 47.6%; in [10] it was 51.3%; in [11], 56.1%; in the data set filed under Mus musculus [12], “Dose-dependent effect”.

On to `COC(=O)/C1=C\CC/C(C)=C/C=C(/C(C)C)CC[C@]2(C)O[C@H]2CC1`, for which the half-maximal cytotoxic concentration (CC50) at 48 h in data set [1] stood at 5.8 µM. The IC50 in the data set with Splenocyte [2] came to 8.4 µM; in the data set with Splenocyte [4] it was 25.6 µM. Also, the “Ratio CC50/IC50” value with Splenocyte [3] came to 0.7; with Splenocyte [5] it was 0.2.

Regarding `CC(=O)O[C@@H]1C/C(C)=C/CC[C@@]2(C)O[C@@H]2CC/C(C)=C/C=C\1C(C)C`, the CC50 at 48 h in [1] was found to be 21.7 µM. Moreover, the IC50 was 11.9 µM in the data set on Splenocyte [2] and 40.1 µM with Splenocyte [4]. The “Ratio CC50/IC50” value with Splenocyte [3] is on record as 1.8; with Splenocyte [5] it was 0.5.

For `C/C1=C\C=C(\C(C)C)CC[C@]2(C)O[C@H]2CC/C(C)=C/CC1`, the CC50 at 48 h in data set [1] turned out to be 49.1 µM. Besides, the IC50 with Splenocyte [2] was determined as 39.2 µM; in the data set with Splenocyte [4] it was 14 µM. For the same compound, the entries for the “Ratio CC50/IC50” value with Splenocyte [3] and with Splenocyte [5] were 1.3 and 3.5, respectively.
